Assays:
Assay type in all cases: cell-based, mouse
LIF = experiment: Real-time PCR, cytokine gene LIF in ES cells; conditions: for LIF mRNA expression level: ES cells, control group = 100%
Protocol: (§1) An experimental group medium (BP5, BP10, BP20 or BP40) and a control group medium (without BP) were added respectively to perform the following steps. ES cells were cultured with an initial density of 1×10^4 per well in a 6-well culture dish. The medium was removed until the cells growth to be about 70 to 80% confluence, and then 1 ml TRIzol (Invitrogen) was added into each well. The cells were incubated for 5 minutes, and then was scraped by a spatula and placed into a 1.5 ml microtube to be lysed adequately. Chloroform (0.2 ml) was added into the microtubes. The mixture was shaken up and down for 15 seconds, and then incubated at room temperature for 2 to 3 minutes. Thereafter, the mixture was centrifuged at 12000 rpm at 4° C. for 15 minutes, and the supernatant was removed into another 1.5 ml microtube and isopropanol (0.5 ml) was added into the microtube with well mixing. The mixture was incubated at room temperature for 10 minutes and then centrifuged at 12000 rpm at 4° C. for 10 minutes. The supernatant was then removed. One ml of 70% ethanol containing DEPC.H2O was used to wash the remaining sediment. The sediment was centrifuged at 7500 rpm at 4° C. for 5 minutes. The supernatant was removed. The sediment was dried by vacuum suction. The dried samples were dissolved in about 0.01 to 0.02 ml of DEPC.H2O to obtain the experimental group RNA and control group RNA. Both groups were stored at −80° C.
(§2) The OD value of RNA samples in both groups obtained from the above Experiment I were measured at a wavelength of 260 nm (RNA: OD260=1 for a 40 μg/mL solution). Each RNA sample (2 μl) was added with RNA-free water until the volume of the sample reached 10 μl. Two μl oligo (dT) (100 μg/ml) was added into each sample, and the samples were incubated at 65° C. for 5 minutes. Then, the samples were immediately placed on ice and spun down. Next, 6.5 μl of a reaction solution [4 μl of 5× buffer+1 μl of 0.1 M DTT+1 μl of RNase out+0.5 μl of SSIII (Invitrogen)] was added into each of the samples, and the samples were incubated at 50° C. for about 30 to 60 minutes and at 75° C. for 15 minutes to obtain the experimental group cDNA and control group cDNA. Both groups were stored at −80° C.
(§3) This experiment was used to detect the expression levels of ES cell-related genes, i.e., Oct4 and Sox2, etc. First, 4 μl of the experimental group cDNA or control group cDNA was added into each well of a 96-well micro-reaction plate, and mixed with 6 μl of a reaction solution [0.5 μl of 6 μM forward primer+0.5 μl of 6 μM reverse primer+5 μl of SYBR Green PCR Master mix (Roche)], wherein the SYBR Green PCR Master mix included the reagents needed for Q-PCR, such as dNTPs, MgCl, Taq DNA polymerase and 2×SYBR® Green I solution. […] The cycle threshold (CT) values were measured. […]

Jak2 = experiment: Western blot assay, Jak2 protein in ES cells; conditions: for Jak2 Protein expression level: ES cells, control group = 100%
From the text: According to the known research at present, Jak2 and Stat3 proteins could be phosphorylated to form the active forms, and the Jak2-Stat3 signaling pathway will be activated when Jak2 and Stat3 were phosphorylated.
An experimental group medium (BP5 or BP10), a LIF-containing medium (without BP), and a control group medium (without BP) were used respectively to culture ES cells with an initial density of 1×10^4 per well in a 6-well culture dish. The medium was removed until the cells growth to be about 70 to 80% confluence. The proteins were extracted to conduct the Western blot assay by using rabbit anti-Jak2 antibody (Cell Signaling Technology), mouse anti-phospho-Jak2 antibody (Cell Signaling Technology), rabbit anti-Stat3 antibody (BD) and rabbit anti-phospho-Stat3 antibody (Cell Signaling Technology), to determine whether BP would affect the protein expression levels of the genes in the Jak-Stat3 signaling pathway.

OSM = experiment: Real-time PCR, cytokine gene OSM in ES cells; conditions: for Osm mRNA expression level: ES cells, control group = 100%
Protocol: as §1, §2, §3

IL5 = experiment: Real-time PCR, cytokine gene IL5 in ES cells; conditions: for IL5 mRNA expression level: ES cells, control group = 100%
Protocol: as §1, §2, §3

EGF = experiment: Real-time PCR, cytokine gene EGF in ES cells; conditions: for EGF mRNA expression level: ES cells, control group = 100%
Protocol: as §1, §2, §3

[1] = BP10 medium (about 10 μg BP/ml)
[2] = BP-containing ES cell medium, result in words
[3] = LIF-containing medium (LIF 4 ng/ml)

Molecule	LIF mRNA expression level (LIF; BP5 medium (about 5 μg BP/ml)) [%]	LIF mRNA expression level (LIF; [1]) [%]	mRNA expression level of LIF (LIF; [2])	Jak2 Protein expression level (Jak2; BP5 medium (about 5 μg BP/ml)) [%]	Jak2 Protein expression level (Jak2; [1]) [%]	total protein expression and phosphorylated protein expression level of Jak2 (Jak2; ES cell medium containing BP, result in words)	Osm mRNA expression level (OSM; BP5 medium (about 5 μg BP/ml)) [%]	Osm mRNA expression level (OSM; [1]) [%]	mRNA expression level of OSM (OSM; [2])	IL5 mRNA expression level (IL5; BP5 medium (about 5 μg BP/ml)) [%]	IL5 mRNA expression level (IL5; [1]) [%]	mRNA expression level of IL-5 (IL5; [2])	EGF mRNA expression level (EGF; BP5 medium (about 5 μg BP/ml)) [%]	EGF mRNA expression level (EGF; [1]) [%]	mRNA expression level of EGF (EGF; [2])	LIF mRNA expression level (LIF; [3]) [%]	Jak2 Protein expression level (Jak2; LIF-containing medium (LIF 4 ng/ml, without BP)) [%]	Osm mRNA expression level (OSM; [3]) [%]	IL5 mRNA expression level (IL5; [3]) [%]	EGF mRNA expression level (EGF; [3]) [%]
CCCC=C1OC(=O)c2ccccc21 [BP, n-butylidenephthalide]	113	184	significantly up-regulated	109	134	increased significantly	109	246	significantly up-regulated	65	175	significantly up-regulated	110	204	significantly up-regulated	–	–	–	–	–
LIF: multifunctional cell factor used to maintain pluripotency of stem cells; LIF-containing medium (4 ng/ml, without BP) as comparison	–	–	–	–	–	–	–	–	–	–	–	–	–	–	–	81	62	128	35	145
